Measured values published in patent publication US11578055B2, “Triazacyclododecansulfonamide (“TCD”)-based protein secretion inhibitors” (KEZAR LIFE SCIENCES, priority 2018, dated 2023).

Tests used:
[1] = system: multiple myeloma cell line U266B1; assay: U266 Cell Viability Assay; type: cell-based, human; settings: Homo sapiens, U-266; 48 hr, U266, Celltiter-Glo
Method in brief: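 Viability was measured by CellTiter-Glo luminescence after 48 h compound exposure at 37° C, 5% CO2. The cells were U266B1 multiple myeloma cells grown in RPMI 1640 plus 10% FBS. Where stereochemistry is not shown, values apply to the stereoisomer mixture.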

[2] = system: full length TNFα (amino acids 1-233) fused to Gaussia Luciferase; assay: Dox Induced TNFα-FL-Gluc Assay; type: cell-based; settings: 24 hr, Dox inducible, 293FRT/TO cells; read-out: 24 hr Dox Inducible TNFaFLGluc 293FRT/TO: Mean IC50
Method in brief: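 Compounds diluted in DMSO/medium with doxycycline were incubated at 37° C, 5% CO2 with 293 T-REx cells stably carrying a Tet-regulated TNFα(1-233)-Gaussia luciferase construct. Data for structures drawn without stereochemistry refer to stereoisomer mixtures.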

[3] = In Vitro Microsome Stability Assay (mouse); type: in vitro ADME; settings: mouse liver microsomes, 30 min w/ NADPH
Method in brief: (§1)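 Species liver microsomes in potassium phosphate buffer were preincubated at 37 °C for 3–5 min with test compound (added from 0.25 mM DMSO stock), then started with NADPH. Samples at 0 and 30 min were quenched with acetonitrile containing internal standard and analysed by LC-MS/MS; % remaining at 30 min used analyte/IS AUC ratios relative to t=0.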

[4] = In Vitro Microsome Stability Assay (monkey); type: in vitro ADME; settings: monkey liver microsomes, 30 min w/ NADPH
Method in brief: as §1

[5] = In Vitro Microsome Stability Assay (human); type: in vitro ADME; settings: human liver microsomes, 30 min w/ NADPH
Method in brief: as §1

[6] = system: multiple myeloma cell line NCl-H929; assay: H929 Cell Viability Assay; type: cell-based, human; settings: Homo sapiens, NCI-H929, 48 h, H929, Celltiter-Glo
Method in brief: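 Viability was determined by CellTiter-Glo luminescence after a 48 h, 37 °C exposure of NCI-H929 cells to serial compound dilutions in medium containing 10% FBS. Where stereochemistry is not shown, values refer to a mix of stereoisomers.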

[7] = system: full length IL-2 (amino acids 1-153) fused to Gaussia Luciferase; assay: Dox Induced IL2-FL-Gluc Assay; type: cell-based; settings: 24 hr, Dox inducible, 293FRT/TO cells; read-out: 24 hr Dox Inducible IL2FLGluc 293FRT/TO: Mean IC50
Method in brief: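 Compounds in DMSO/media with doxycycline were added to cells plated the previous day and incubated at 37° C, 5% CO2. Cells: stable Flp-In 293 T-REx line, Dox-regulated expression of IL-2 (aa 1-153) fused at its C-terminus to Gaussia luciferase.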

[8] = In Vitro Microsome Stability Assay (rat); type: in vitro ADME; settings: rat liver microsomes, 30 min w/ NADPH
Method in brief: as §1

[9] = system: PD1 signal sequence plus 10 amino acids fused to Gaussia Luciferase (PD1-ss+10aa/Gaussia Luciferase); assay: Dox Induced PD1-ss-Gluc Assay; type: cell-based; settings: 24 hr, Dox inducible, 293FRT/TO cells; read-out: 24 hr Dox Inducible PD1ssGluc 293FRT/TO: Mean IC50
Method in brief: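 Compound dilutions in DMSO/media containing doxycycline were applied to a stable, inducible 293 T-REx line carrying the luciferase fusion, then incubated at 37 °C, 5% CO2. Where stereochemistry is not drawn, values relate to isomer mixtures.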

| SMILES | EC50 [1] | IC50 [2] | Liver Microsome Stability-% Left after 30 min w/ NADPH (%) Mouse [3] | Liver Microsome Stability-% Left after 30 min w/ NADPH (%) Monkey [4] | Liver Microsome Stability-% Left after 30 min w/ NADPH (%) Human [5] | EC50 [6] | IC50 [7] | Liver Microsome Stability-% Left after 30 min w/ NADPH (%) Rat [8] | IC50 [9] |
| --- | --- | --- | --- | --- | --- | --- | --- | --- | --- |
| C[C@H]1CN(S(=O)(=O)c2ccc(N(C)C)cc2)CCCN(CC2CC(F)(F)C2)CCCN(S(=O)(=O)N2CCc3cc(Cl)ccc3C2)C1 [A169, 4-{[(3S)-5-[(6-chloro-1,2,3,4-tetrahydroisoquinolin-2-yl)sulfonyl]-9-[(3,3-difluorocyclobutyl)methyl]-3-methyl-1,5,9-triazacyclododecan-1-yl]sulfonyl}-N,N-dimethylaniline] | > 25 µM | 1.05 µM | 22.5% | 4.23% | 34.7% | 3.27 µM | 0.192 µM | 13.1% | 0.0815 µM |
| CC1c2ccccc2CCN1S(=O)(=O)N1CCCN(CC2CCCCC2)CCCN(S(=O)(=O)c2ccc(N(C)C)cc2)C[C@H](C)C1 (stereo partly drawn) [A170, 4-{[(3S)-9-(cyclohexylmethyl)-3-methyl-5-[(1-methyl-1,2,3,4-tetrahydroisoquinolin-2-yl]sulfonyl]-1,5,9-triazacyclododecan-1-yl]sulfonyl}-N,N-dimethylaniline] | > 25 µM | 0.798 µM | 3.65% | 1.37% | 7.2% | 1.78 µM | 0.134 µM | 10.8% | 0.0561 µM |
| C[C@H]1CN(S(=O)(=O)Cc2ccccc2)CCCN(CC2CCCCC2)CCCN(S(=O)(=O)N2CCc3cc(Cl)ccc3C2)C1 [A171, 6-chloro-2-{[(3S)-9-(cyclohexylmethyl)-3-methyl-5-phenylmethanesulfonyl-1,5,9-triazacyclododecan-1-yl]sulfonyl}-1,2,3,4-tetrahydroisoquinoline] | > 25 µM | > 25 µM | 0.91% | 0.26% | 0.60% | > 25 µM | > 25 µM | 0.90% | > 25 µM |
| CC1Cc2ccccc2CN1S(=O)(=O)N1CCCN(CC2CCCCC2)CCCN(S(=O)(=O)c2ccc(N(C)C)cc2)C[C@H](C)C1 (stereo partly drawn) [A172, 4-{[(3S)-9-(cyclohexylmethyl)-3-methyl-5-[(3-methyl-1,2,3,4-tetrahydroisoquinolin-2-yl]sulfonyl]-1,5,9-triazacyclododecan-1-yl]sulfonyl}-N,N-dimethylaniline] | > 25 µM | 0.436 µM | 3.65% | 2.63% | 3.46% | 1.75 µM | 0.0664 µM | 2.23% | 0.0292 µM |
| C[C@H]1CN(S(=O)(=O)c2ccc(N(C)C)cc2)CCCN(CC2CCCCC2)CCCN(S(=O)(=O)N2CCN(c3ccccc3OC(F)(F)F)CC2)C1 [A173, 4-{[(3S)-9-(cyclohexylmethyl)-3-methyl-5-({4-[2-(trifluoromethoxy)phenyl]piperazin-1-yl}sulfonyl)-1,5,9-triazacyclododecan-1-yl]sulfonyl}-N,N-dimethylaniline] | > 25 µM | 5.64 µM | 49.2% | 55.9% | 56.1% | > 25 µM | 0.248 µM | 53.8% | 0.0788 µM |
| COc1c(N2CCN(S(=O)(=O)N3CCCN(CC4CCCCC4)CCCN(S(=O)(=O)c4ccc(N(C)C)cc4)C[C@H](C)C3)CC2)ccc(F)c1F [A174, 4-{[(3S)-9-(cyclohexylmethyl)-5-{[4-(3,4-difluoro-2-methoxyphenyl)piperazin-1-yl]sulfonyl}-3-methyl-1,5,9-triazacyclododecan-1-yl]sulfonyl}-N,N-dimethylaniline] | > 25 µM | 0.566 µM | 36.9% | 28.4% | 41.7% | 1.86 µM | 0.0533 µM | 44.4% | 0.0158 µM |
| COc1c(F)cccc1N1CCN(S(=O)(=O)N2CCCN(CC3CCCCC3)CCCN(S(=O)(=O)c3ccc(N(C)C)cc3)C[C@H](C)C2)CC1 [A175, 4-{[(3S)-9-(cyclohexylmethyl)-5-{[4-(3-fluoro-2-methoxyphenyl)piperazin-1-yl]sulfonyl}-3-methyl-1,5,9-triazacyclododecan-1-yl]sulfonyl}-N,N-dimethylaniline] | > 25 µM | 0.393 µM | 6.73% | 2.27% | 4.26% | 1.44 µM | 0.0404 µM | 6.28% | 0.00935 µM |
| COc1cc(F)ccc1C1CN(S(=O)(=O)N2CCCN(CC3CCCCC3)CCCN(S(=O)(=O)c3ccc(N(C)C)cc3)C[C@H](C)C2)C1 [A178, 4-{[(3S)-9-(cyclohexylmethyl)-5-{[3-(4-fluoro-2-methoxyphenyl)azetidin-1-yl]sulfonyl}-3-methyl-1,5,9-triazacyclododecan-1-yl]sulfonyl}-N,N-dimethylaniline] | > 25 µM | 4.82 µM | 22.8% | 25.8% | 24.0% | > 25 µM | 0.255 µM | 29.2% | 0.135 µM |
| C[C@H]1CN(S(=O)(=O)c2ccc3oncc3c2)CCCN(CC2CCCCC2)CCCN(S(=O)(=O)N2CCc3cc(Cl)ccc3C2)C1 [A180] | > 25 µM | > 25 µM | 0.44% | 0.08% | 0.80% | 20.2 µM | 13.8 µM | 1.97% | 2.74 µM |
| C[C@H]1CN(S(=O)(=O)c2ccc(N(C)C)cc2)CCCN(CC2CCCCC2)CCCN(S(=O)(=O)N2CCc3c(Cl)cccc3C2)C1 [A181, 4-{[(3S)-5-[(5-chloro-1,2,3,4-tetrahydroisoquinolin-2-yl)sulfonyl]-9-(cyclohexylmethyl)-3-methyl-1,5,9-triazacyclododecan-1-yl]sulfonyl}-N,N-dimethylaniline] | > 25 µM | 0.984 µM | 17.1% | 27.9% | 23.3% | 1.48 µM | 0.122 µM | 22.0% | 0.0387 µM |
| C[C@@H]1CN(CC2CCCCC2)C[C@H](C)CN(S(=O)(=O)c2ccc(N(C)C)cc2)C[C@H](C)CN(S(=O)(=O)N2CCc3cc(Cl)ccc3C2)C1 [B16, 4-{[(3S,7R,11S)-5-[(6-chloro-1,2,3,4-tetrahydroisoquinolin-2-yl]sulfonyl]-9-(cyclohexylmethyl)-3,7,11-trimethyl-1,5,9-triazacyclododecan-1-yl]sulfonyl}-N,N-dimethylaniline] | > 25 µM | 13.9 µM | 58.4% | 44.7% | 55.2% | > 25 µM | 0.826 µM | 72.3% | 0.449 µM |
